Data from the supplement of paper PMC8617591.

Tests used:
[1] = tested on: Mycobacterium tuberculosis Erdman (autoluminescent); experiment: Einf, fitted maximum growth inhibition of combination (fraction); higher = stronger maximal inhibition
Procedure: (§1)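 DiaMOND equipotent two-drug combination dose responses against autoluminescent M. tuberculosis Erdman in 8 in vitro models. Read-out is OD600, or luminescence for the intracellular and dormancy models, normalised to untreated wells. Hill-fit Einf, AUC25 and GRinf are potency metrics; FIC50 and FIC90 are Loewe-additivity fractional inhibitory concentrations, given as log2 (negative = synergy). Replicates are averaged.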

[2] = tested on: Mycobacterium tuberculosis Erdman (autoluminescent); experiment: GRinf, maximum normalised growth rate inhibition (unitless (-1 to 1)); higher = less effect (negative = killing)
Procedure: as §1

[3] = tested on: Mycobacterium tuberculosis Erdman (autoluminescent); experiment: FIC90 (Loewe) at 90% inhibition (log2); higher = more antagonistic
Procedure: as §1

[4] = tested on: Mycobacterium tuberculosis Erdman (autoluminescent); experiment: FIC50 (Loewe) at 50% inhibition (log2); higher = more antagonistic
Procedure: as §1

[5] = tested on: Mycobacterium tuberculosis Erdman (autoluminescent); experiment: AUC25, normalised area under dose response up to IC25 (fraction (0-1)); higher = more potent at low dose
Procedure: as §1

CC(C)/N=c1\cc2n(-c3ccc(Cl)cc3)c3ccccc3nc-2cc1Nc1ccc(Cl)cc1 [clofazimine] + CO[C@H]1/C=C/O[C@@]2(C)Oc3c(C)c(O)c4c(O)c(c(/C=N/N5CCN(C)CC5)c(O)c4c3C2=O)NC(=O)/C(C)=C\C=C\[C@H](C)[C@H](O)[C@@H](C)[C@@H](O)[C@@H](C)[C@H](OC(C)=O)[C@@H]1C [rifampicin]
Settings | AUC25, [5] | Einf, [1] | FIC50, [4] | FIC90, [3] | GRinf, [2]
in vitro model: acidic pH 5.7, time point: constant (~7 days, model-specific) | 0.0889 | 0.874 | -0.0436 | -1.95 | -0.208
in vitro model: acidic pH 5.7, time point: terminal (~4-5 doublings, model-specific) | 0.0797 | 0.986 | 0.0811 | -0.172 | -0.273
in vitro model: intracellular J774, time point: constant = terminal | – | 0.967 | – | 0.0974 | -0.265

Settings | AUC25, [5] | Einf, [1] | FIC50, [4] | FIC90, [3] | GRinf, [2]
in vitro model: butyrate, time point: constant (~7 days, model-specific) | 0.117 | 0.936 | 0.216 | 0.25 | -0.0602
in vitro model: butyrate, time point: terminal (~4-5 doublings, model-specific) | 0.104 | 0.979 | 0.0822 | 0.348 | -0.0537
in vitro model: cholesterol 0.05 mM, time point: constant (~7 days, model-specific) | 0.113 | 0.573 | 0.4 | – | 0.303
in vitro model: cholesterol 0.05 mM, time point: terminal (~4-5 doublings, model-specific) | 0.0926 | 0.867 | 1.24 | 2.57 | 0.0118
in vitro model: cholesterol-high 0.2 mM, time point: constant (~7 days, model-specific) | 0.0989 | 0.907 | 0.773 | 2.49 | -0.497
in vitro model: cholesterol-high 0.2 mM, time point: terminal (~4-5 doublings, model-specific) | 0.0908 | 1 | 1.01 | 0.724 | -0.955
in vitro model: dormancy (butyrate + nitrate, low O2), time point: constant (~7 days, model-specific) | 0.0883 | 0.893 | 0.2 | -0.494 | 0.194
in vitro model: dormancy (butyrate + nitrate, low O2), time point: terminal (~4-5 doublings, model-specific) | 0.062 | 0.97 | 0.0425 | 0.45 | -0.059
in vitro model: standard 7H9 glycerol, time point: constant = terminal | 0.103 | 0.935 | -0.376 | -0.394 | 0.00747
in vitro model: valerate, time point: constant (~7 days, model-specific) | 0.119 | 0.907 | 0.421 | – | -0.0677
in vitro model: valerate, time point: terminal (~4-5 doublings, model-specific) | 0.0808 | 0.955 | 0.569 | 1.43 | 0.00769

CC(C)/N=c1\cc2n(-c3ccc(Cl)cc3)c3ccccc3nc-2cc1Nc1ccc(Cl)cc1 [clofazimine] + COc1c(N2C[C@@H]3CCCN[C@@H]3C2)c(F)cc2c(=O)c(C(=O)O)cn(C3CC3)c12 [moxifloxacin]
Settings | AUC25, [5] | Einf, [1] | FIC50, [4] | FIC90, [3] | GRinf, [2]
in vitro model: acidic pH 5.7, time point: constant (~7 days, model-specific) | 0.151 | 0.605 | 0.466 | – | -0.0307
in vitro model: acidic pH 5.7, time point: terminal (~4-5 doublings, model-specific) | 0.0976 | 0.937 | 0.107 | 0.181 | -0.212
in vitro model: intracellular J774, time point: constant = terminal | – | 0.953 | – | 0.341 | -0.283

Settings | AUC25, [5] | Einf, [1] | FIC50, [4] | FIC90, [3] | GRinf, [2]
in vitro model: butyrate, time point: constant (~7 days, model-specific) | 0.109 | 0.955 | 0.486 | 1 | -0.131
in vitro model: butyrate, time point: terminal (~4-5 doublings, model-specific) | 0.0987 | 0.991 | 0.404 | 0.955 | -0.125
in vitro model: cholesterol 0.05 mM, time point: constant (~7 days, model-specific) | 0.153 | 0.711 | 0.262 | – | -0.0492
in vitro model: cholesterol 0.05 mM, time point: terminal (~4-5 doublings, model-specific) | 0.119 | 0.905 | 0.647 | -0.276 | -0.105
in vitro model: cholesterol-high 0.2 mM, time point: constant (~7 days, model-specific) | 0.131 | 0.944 | 0.132 | 1.06 | -0.922
in vitro model: cholesterol-high 0.2 mM, time point: terminal (~4-5 doublings, model-specific) | 0.113 | 1 | 0.0758 | 0.41 | -0.95
in vitro model: dormancy (butyrate + nitrate, low O2), time point: constant (~7 days, model-specific) | 0.109 | 0.931 | 0.299 | 0.00346 | -0.049
in vitro model: dormancy (butyrate + nitrate, low O2), time point: terminal (~4-5 doublings, model-specific) | 0.0647 | 0.98 | 0.666 | 0.72 | -0.241
in vitro model: standard 7H9 glycerol, time point: constant = terminal | 0.109 | 0.971 | 0.11 | 0.558 | -0.193
in vitro model: valerate, time point: constant (~7 days, model-specific) | 0.139 | 0.895 | -0.0703 | – | -0.179
in vitro model: valerate, time point: terminal (~4-5 doublings, model-specific) | 0.0871 | 0.941 | 0.137 | 0.7 | -0.0272
